Source: US8192962B2, “Processes for detecting toxic substances” (Daikin Industries, Ltd., priority 2001, dated 2012)

System: Detoxification protein genes
Assay: DNA chip mRNA expression in yeast, detoxification protein genes (Table 8)
Format: cell-based, Saccharomyces cerevisiae S288C
How it was run: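 S. cerevisiae S288C grown at 25° C in YPD were exposed in log phase for two hours to one toxic chemical at a growth-inhibiting, non-lethal concentration; untreated cells served as control. Poly(A) mRNA was reverse-transcribed with Cy3/Cy5-dUTP and hybridized to a whole-genome yeast DNA chip at 65° C for over 12 hours; values are fluorescence ratios versus untreated.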

manganese ethylenebis(dithiocarbamate) [(8)]
The level of expressed mRNA in the presence of chemical substance/The level of expressed mRNA in the absence of chemical substance (yeast gene YBL064C): 2.4 | The level of expressed mRNA in the presence of chemical substance/The level of expressed mRNA in the absence of chemical substance (yeast gene YBR008C): 2.8 | The level of expressed mRNA in the presence of chemical substance/The level of expressed mRNA in the absence of chemical substance (yeast gene YBR145W): 1.0 | The level of expressed mRNA in the presence of chemical substance/The level of expressed mRNA in the absence of chemical substance (yeast gene YBR244W): 1.0 | The level of expressed mRNA in the presence of chemical substance/The level of expressed mRNA in the absence of chemical substance (yeast gene YBR293W): 0.9 | The level of expressed mRNA in the presence of chemical substance/The level of expressed mRNA in the absence of chemical substance (yeast gene YCL035C): 1.4 | The level of expressed mRNA in the presence of chemical substance/The level of expressed mRNA in the absence of chemical substance (yeast gene YCL069W): 1.3 | The level of expressed mRNA in the presence of chemical substance/The level of expressed mRNA in the absence of chemical substance (yeast gene YCR083W): 1.5 | The level of expressed mRNA in the presence of chemical substance/The level of expressed mRNA in the absence of chemical substance (yeast gene YDL100C): 1.7 | The level of expressed mRNA in the presence of chemical substance/The level of expressed mRNA in the absence of chemical substance (yeast gene YDL168W): 1.7 | The level of expressed mRNA in the presence of chemical substance/The level of expressed mRNA in the absence of chemical substance (yeast gene YDR256C): 0.8 | The level of expressed mRNA in the presence of chemical substance/The level of expressed mRNA in the absence of chemical substance (yeast gene YDR453C): 1.3 | The level of expressed mRNA in the presence of chemical substance/The level of expressed mRNA in the absence of chemical substance (yeast gene YDR513W): 1.6 | The level of expressed mRNA in the presence of chemical substance/The level of expressed mRNA in the absence of chemical substance (yeast gene YDR538W): 1.0 | The level of expressed mRNA in the presence of chemical substance/The level of expressed mRNA in the absence of chemical substance (yeast gene YEL027W): 0.9 | The level of expressed mRNA in the presence of chemical substance/The level of expressed mRNA in the absence of chemical substance (yeast gene YEL065W): 0.9 | The level of expressed mRNA in the presence of chemical substance/The level of expressed mRNA in the absence of chemical substance (yeast gene YER185W): 1.0 | The level of expressed mRNA in the presence of chemical substance/The level of expressed mRNA in the absence of chemical substance (yeast gene YFL050C): 0.9 | The level of expressed mRNA in the presence of chemical substance/The level of expressed mRNA in the absence of chemical substance (yeast gene YGL013C): 1.4 | The level of expressed mRNA in the presence of chemical substance/The level of expressed mRNA in the absence of chemical substance (yeast gene YGL254W): 1.4 | The level of expressed mRNA in the presence of chemical substance/The level of expressed mRNA in the absence of chemical substance (yeast gene YGR088W): 0.8 | The level of expressed mRNA in the presence of chemical substance/The level of expressed mRNA in the absence of chemical substance (yeast gene YGR138C): 1.0 | The level of expressed mRNA in the presence of chemical substance/The level of expressed mRNA in the absence of chemical substance (yeast gene YGR197C): 0.8 | The level of expressed mRNA in the presence of chemical substance/The level of expressed mRNA in the absence of chemical substance (yeast gene YGR209C): 1.6 | The level of expressed mRNA in the presence of chemical substance/The level of expressed mRNA in the absence of chemical substance (yeast gene YGR224W): 0.6 | The level of expressed mRNA in the presence of chemical substance/The level of expressed mRNA in the absence of chemical substance (yeast gene YHL040C): 1.5 | The level of expressed mRNA in the presence of chemical substance/The level of expressed mRNA in the absence of chemical substance (yeast gene YHL047C): 1.5 | The level of expressed mRNA in the presence of chemical substance/The level of expressed mRNA in the absence of chemical substance (yeast gene YHR008C): 0.9 | The level of expressed mRNA in the presence of chemical substance/The level of expressed mRNA in the absence of chemical substance (yeast gene YHR048W): 1.9 | The level of expressed mRNA in the presence of chemical substance/The level of expressed mRNA in the absence of chemical substance (yeast gene YHR053C): 2.2 | The level of expressed mRNA in the presence of chemical substance/The level of expressed mRNA in the absence of chemical substance (yeast gene YHR055C): 2.1 | The level of expressed mRNA in the presence of chemical substance/The level of expressed mRNA in the absence of chemical substance (yeast gene YIR002C): 1.2 | The level of expressed mRNA in the presence of chemical substance/The level of expressed mRNA in the absence of chemical substance (yeast gene YIR038C): 1.3 | The level of expressed mRNA in the presence of chemical substance/The level of expressed mRNA in the absence of chemical substance (yeast gene YJL101C): 1.3 | The level of expressed mRNA in the presence of chemical substance/The level of expressed mRNA in the absence of chemical substance (yeast gene YJR104C): 1.5 | The level of expressed mRNA in the presence of chemical substance/The level of expressed mRNA in the absence of chemical substance (yeast gene YKL026C): 1.8 | The level of expressed mRNA in the presence of chemical substance/The level of expressed mRNA in the absence of chemical substance (yeast gene YKL064W): 0.9 | The level of expressed mRNA in the presence of chemical substance/The level of expressed mRNA in the absence of chemical substance (yeast gene YKR066C): 0.7 | The level of expressed mRNA in the presence of chemical substance/The level of expressed mRNA in the absence of chemical substance (yeast gene YKR105C): 1.3 | The level of expressed mRNA in the presence of chemical substance/The level of expressed mRNA in the absence of chemical substance (yeast gene YKR106W): 1.3 | The level of expressed mRNA in the presence of chemical substance/The level of expressed mRNA in the absence of chemical substance (yeast gene YLL028W): 0.7 | The level of expressed mRNA in the presence of chemical substance/The level of expressed mRNA in the absence of chemical substance (yeast gene YLL057C): 1.4 | The level of expressed mRNA in the presence of chemical substance/The level of expressed mRNA in the absence of chemical substance (yeast gene YLL060C): 5.8 | The level of expressed mRNA in the presence of chemical substance/The level of expressed mRNA in the absence of chemical substance (yeast gene YLR043C): 1.1 | The level of expressed mRNA in the presence of chemical substance/The level of expressed mRNA in the absence of chemical substance (yeast gene YLR046C): 0.5 | The level of expressed mRNA in the presence of chemical substance/The level of expressed mRNA in the absence of chemical substance (yeast gene YML028W): 0.8 | The level of expressed mRNA in the presence of chemical substance/The level of expressed mRNA in the absence of chemical substance (yeast gene YML116W): 2.2 | The level of expressed mRNA in the presence of chemical substance/The level of expressed mRNA in the absence of chemical substance (yeast gene YMR015C): 0.7 | The level of expressed mRNA in the presence of chemical substance/The level of expressed mRNA in the absence of chemical substance (yeast gene YMR038C): 1.9 | The level of expressed mRNA in the presence of chemical substance/The level of expressed mRNA in the absence of chemical substance (yeast gene YNL239W): 1.3 | The level of expressed mRNA in the presence of chemical substance/The level of expressed mRNA in the absence of chemical substance (yeast gene YNL241C): 0.9 | The level of expressed mRNA in the presence of chemical substance/The level of expressed mRNA in the absence of chemical substance (yeast gene YNL259C): 1.5 | The level of expressed mRNA in the presence of chemical substance/The level of expressed mRNA in the absence of chemical substance (yeast gene YOL158C): 0.7 | The level of expressed mRNA in the presence of chemical substance/The level of expressed mRNA in the absence of chemical substance (yeast gene YOR031W): 0.9 | The level of expressed mRNA in the presence of chemical substance/The level of expressed mRNA in the absence of chemical substance (yeast gene YOR153W): 0.5 | The level of expressed mRNA in the presence of chemical substance/The level of expressed mRNA in the absence of chemical substance (yeast gene YOR247W): 0.7 | The level of expressed mRNA in the presence of chemical substance/The level of expressed mRNA in the absence of chemical substance (yeast gene YOR251C): 1.1 | The level of expressed mRNA in the presence of chemical substance/The level of expressed mRNA in the absence of chemical substance (yeast gene YOR273C): 0.6 | The level of expressed mRNA in the presence of chemical substance/The level of expressed mRNA in the absence of chemical substance (yeast gene YPL163C): 0.5 | The level of expressed mRNA in the presence of chemical substance/The level of expressed mRNA in the absence of chemical substance (yeast gene YPR200C): 1.4
